Reference: patent US10766902B2, “Wee-1 inhibiting pyrazolopyrimidinone compounds” (ALMAC DISCOVERY LIMITED, priority 2016, dated 2020)

Columns and labels:
Format in all cases: biochemical
Conditions in all cases: tested at 300-350 nM
ABL1 = ABL1 (Homo sapiens (Human), UniProt P00519); test: SelectScreen Kinase Profiling: ABL1
Description: (§1) Table 4 below highlights the selectivity of a representative compound of the invention, Example 5, against a panel of 50 kinases (assessed using the Invitrogen SelectScreen® Kinase Profiling Service).

ACVR1B (ALK4) = ACVR1B (ALK4) (Homo sapiens (Human), UniProt P36896); test: SelectScreen Kinase Profiling: ACVR1B (ALK4)
Description: as §1

AKT1 (PKB alpha) = AKT1 (PKB alpha) (Homo sapiens (Human), UniProt P31749); test: SelectScreen Kinase Profiling: AKT1 (PKB alpha)
Description: as §1

AMPK A1/B1/G1 = AMPK A1/B1/G1 (Homo sapiens (Human), UniProt Q13131); test: SelectScreen Kinase Profiling: AMPK A1/B1/G1
Description: as §1

AURKA (Aurora A) = AURKA (Aurora A) (Homo sapiens (Human), UniProt O14965); test: SelectScreen Kinase Profiling: AURKA (Aurora A)
Description: as §1

BTK = BTK (Homo sapiens (Human), UniProt Q06187); test: SelectScreen Kinase Profiling: BTK
Description: as §1

CDK1/cyclin B = CDK1/cyclin B (Homo sapiens (Human), UniProt P06493); test: SelectScreen Kinase Profiling: CDK1/cyclin B
Description: as §1

CHEK1 (CHK1) = CHEK1 (CHK1) (Homo sapiens (Human), UniProt O14757); test: SelectScreen Kinase Profiling: CHEK1 (CHK1)
Description: as §1

CSNK1G2 (CK1 gamma 2) = CSNK1G2 (CK1 gamma 2) (Homo sapiens (Human), UniProt P78368); test: SelectScreen Kinase Profiling: CSNK1G2 (CK1 gamma 2)
Description: as §1

CSNK2A1 (CK2 alpha 1) = CSNK2A1 (CK2 alpha 1) (Homo sapiens (Human), UniProt P68400); test: SelectScreen Kinase Profiling: CSNK2A1 (CK2 alpha 1)
Description: as §1

DYRK3 = DYRK3 (Homo sapiens (Human), UniProt O43781); test: SelectScreen Kinase Profiling: DYRK3
Description: as §1

EGFR (ErbB1) = EGFR (ErbB1) (Homo sapiens (Human), UniProt P00533); test: SelectScreen Kinase Profiling: EGFR (ErbB1)
Description: as §1

EPHA2 = EPHA2 (Homo sapiens (Human), UniProt P29317); test: SelectScreen Kinase Profiling: EPHA2
Description: as §1

ERBB2 (HER2) = ERBB2 (HER2) (Homo sapiens (Human), UniProt P04626); test: SelectScreen Kinase Profiling: ERBB2 (HER2)
Description: as §1

FGFR1 = FGFR1 (Homo sapiens (Human), UniProt P11362); test: SelectScreen Kinase Profiling: FGFR1
Description: as §1

FLT3 = FLT3 (Homo sapiens (Human), UniProt P36888); test: SelectScreen Kinase Profiling: FLT3
Description: as §1

FRAP1 (mTOR) = FRAP1 (mTOR) (Homo sapiens (Human), UniProt P42345); test: SelectScreen Kinase Profiling: FRAP1 (mTOR)
Description: as §1

GSK3B (GSK3 beta) = GSK3B (GSK3 beta) (Homo sapiens (Human), UniProt P49841); test: SelectScreen Kinase Profiling: GSK3B (GSK3 beta)
Description: as §1

IGF1R = IGF1R (Homo sapiens (Human), UniProt P08069); test: SelectScreen Kinase Profiling: IGF1R
Description: as §1

IKBKB (IKK beta) = IKBKB (IKK beta) (Homo sapiens (Human), UniProt O14920); test: SelectScreen Kinase Profiling: IKBKB (IKK beta)
Description: as §1

INSR = INSR (Homo sapiens (Human), UniProt P06213); test: SelectScreen Kinase Profiling: INSR
Description: as §1

IRAK4 = IRAK4 (Homo sapiens (Human), UniProt Q9NWZ3); test: SelectScreen Kinase Profiling: IRAK4
Description: as §1

JAK3 = JAK3 (Homo sapiens (Human), UniProt P52333); test: SelectScreen Kinase Profiling: JAK3
Description: as §1

KDR (VEGFR2) = KDR (VEGFR2) (Homo sapiens (Human), UniProt P35968); test: SelectScreen Kinase Profiling: KDR (VEGFR2)
Description: as §1

KIT = KIT (Homo sapiens (Human), UniProt P10721); test: SelectScreen Kinase Profiling: KIT
Description: as §1

MAP2K1 (MEK1) = MAP2K1 (MEK1) (Homo sapiens (Human), UniProt Q02750); test: SelectScreen Kinase Profiling: MAP2K1 (MEK1)
Description: as §1

MAP4K4 (HGK) = MAP4K4 (HGK) (Homo sapiens (Human), UniProt O95819); test: SelectScreen Kinase Profiling: MAP4K4 (HGK)
Description: as §1

MAPK1 (ERK2) = MAPK1 (ERK2) (Homo sapiens (Human), UniProt P28482); test: SelectScreen Kinase Profiling: MAPK1 (ERK2)
Description: as §1

MAPK14 (p38 alpha) = MAPK14 (p38 alpha) (Homo sapiens (Human), UniProt Q16539); test: SelectScreen Kinase Profiling: MAPK14 (p38 alpha)
Description: as §1

MAPK8 (JNK1) = MAPK8 (JNK1) (Homo sapiens (Human), UniProt P45983); test: SelectScreen Kinase Profiling: MAPK8 (JNK1)
Description: as §1

MAPKAPK2 = MAPKAPK2 (Homo sapiens (Human), UniProt P49137); test: SelectScreen Kinase Profiling: MAPKAPK2
Description: as §1

MARK2 = MARK2 (Homo sapiens (Human), UniProt Q7KZI7); test: SelectScreen Kinase Profiling: MARK2
Description: as §1

MET (cMet) = MET (cMet) (Homo sapiens (Human), UniProt P08581); test: SelectScreen Kinase Profiling: MET (cMet)
Description: as §1

NEK1 = NEK1 (Homo sapiens (Human), UniProt Q96PY6); test: SelectScreen Kinase Profiling: NEK1
Description: as §1

NTRK1 (TRKA) = NTRK1 (TRKA) (Homo sapiens (Human), UniProt P04629); test: SelectScreen Kinase Profiling: NTRK1 (TRKA)
Description: as §1

PAK4 = PAK4 (Homo sapiens (Human), UniProt O96013); test: SelectScreen Kinase Profiling: PAK4
Description: as §1

PDGFRB (PDGFR beta) = PDGFRB (PDGFR beta) (Homo sapiens (Human), UniProt P09619); test: SelectScreen Kinase Profiling: PDGFRB (PDGFR beta)
Description: as §1

PHKG2 = PHKG2 (Homo sapiens (Human), UniProt P15735); test: SelectScreen Kinase Profiling: PHKG2
Description: as §1

PIM1 = PIM1 (Homo sapiens (Human), UniProt P11309); test: SelectScreen Kinase Profiling: PIM1
Description: as §1

PLK1 = PLK1 (Homo sapiens (Human), UniProt P53350); test: SelectScreen Kinase Profiling: PLK1
Description: as §1

PRKACA (PKA) = PRKACA (PKA) (Homo sapiens (Human), UniProt P17612); test: SelectScreen Kinase Profiling: PRKACA (PKA)
Description: as §1

PRKCB1 (PKC beta I) = PRKCB1 (PKC beta I) (Homo sapiens (Human), UniProt P05771); test: SelectScreen Kinase Profiling: PRKCB1 (PKC beta I)
Description: as §1

ROCK1 = ROCK1 (Homo sapiens (Human), UniProt Q13464); test: SelectScreen Kinase Profiling: ROCK1
Description: as §1

RPS6KA3 (RSK2) = RPS6KA3 (RSK2) (Homo sapiens (Human), UniProt P51812); test: SelectScreen Kinase Profiling: RPS6KA3 (RSK2)
Description: as §1

RPS6KB1 (p70S6K) = RPS6KB1 (p70S6K) (Homo sapiens (Human), UniProt P23443); test: SelectScreen Kinase Profiling: RPS6KB1 (p70S6K)
Description: as §1

SRC = SRC (Homo sapiens (Human), UniProt P12931); test: SelectScreen Kinase Profiling: SRC
Description: as §1

SYK = SYK (Homo sapiens (Human), UniProt P43405); test: SelectScreen Kinase Profiling: SYK
Description: as §1

TEK (Tie2) = TEK (Tie2) (Homo sapiens (Human), UniProt Q02763); test: SelectScreen Kinase Profiling: TEK (Tie2)
Description: as §1

MAPK14 (p38 alpha), sequence (Q16539 whole entry): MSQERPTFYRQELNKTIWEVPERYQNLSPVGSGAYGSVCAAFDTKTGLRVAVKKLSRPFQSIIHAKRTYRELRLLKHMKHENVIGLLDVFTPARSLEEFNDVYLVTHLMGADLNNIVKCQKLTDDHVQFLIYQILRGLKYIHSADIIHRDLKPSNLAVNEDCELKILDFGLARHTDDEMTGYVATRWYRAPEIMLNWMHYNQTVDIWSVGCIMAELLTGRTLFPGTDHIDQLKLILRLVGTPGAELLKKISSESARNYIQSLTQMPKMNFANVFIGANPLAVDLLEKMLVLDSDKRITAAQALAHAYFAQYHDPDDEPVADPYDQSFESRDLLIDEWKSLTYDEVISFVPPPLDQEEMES
JAK3, sequence (P52333 whole entry): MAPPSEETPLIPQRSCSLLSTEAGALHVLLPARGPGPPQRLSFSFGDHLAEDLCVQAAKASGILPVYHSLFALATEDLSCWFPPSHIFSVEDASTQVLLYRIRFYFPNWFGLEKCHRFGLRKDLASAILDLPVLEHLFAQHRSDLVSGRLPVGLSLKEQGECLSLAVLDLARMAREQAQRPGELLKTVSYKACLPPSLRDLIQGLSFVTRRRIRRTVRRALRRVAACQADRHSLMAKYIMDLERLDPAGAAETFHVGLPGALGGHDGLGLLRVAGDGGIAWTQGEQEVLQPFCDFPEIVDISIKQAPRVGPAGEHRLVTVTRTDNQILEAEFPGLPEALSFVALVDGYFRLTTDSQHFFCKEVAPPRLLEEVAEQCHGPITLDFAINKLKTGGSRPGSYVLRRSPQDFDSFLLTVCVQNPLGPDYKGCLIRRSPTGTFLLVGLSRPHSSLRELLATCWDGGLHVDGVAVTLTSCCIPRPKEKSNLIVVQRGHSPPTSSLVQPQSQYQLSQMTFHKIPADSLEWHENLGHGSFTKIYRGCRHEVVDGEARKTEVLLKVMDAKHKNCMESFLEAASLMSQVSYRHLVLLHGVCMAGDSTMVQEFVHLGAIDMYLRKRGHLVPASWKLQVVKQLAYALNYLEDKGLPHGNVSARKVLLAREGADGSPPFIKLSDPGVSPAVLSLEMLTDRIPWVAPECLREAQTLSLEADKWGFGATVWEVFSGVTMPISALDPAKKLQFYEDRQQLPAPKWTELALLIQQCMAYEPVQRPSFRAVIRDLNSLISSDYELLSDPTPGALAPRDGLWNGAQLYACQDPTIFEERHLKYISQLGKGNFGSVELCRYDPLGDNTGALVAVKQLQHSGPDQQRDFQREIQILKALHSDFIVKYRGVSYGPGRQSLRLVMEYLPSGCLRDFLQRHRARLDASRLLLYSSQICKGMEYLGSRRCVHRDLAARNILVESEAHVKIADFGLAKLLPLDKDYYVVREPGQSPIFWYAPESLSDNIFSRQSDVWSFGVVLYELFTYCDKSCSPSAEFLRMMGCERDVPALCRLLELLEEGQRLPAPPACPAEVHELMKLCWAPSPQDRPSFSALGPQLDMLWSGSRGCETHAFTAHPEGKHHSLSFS
MARK2, sequence (Q7KZI7 whole entry): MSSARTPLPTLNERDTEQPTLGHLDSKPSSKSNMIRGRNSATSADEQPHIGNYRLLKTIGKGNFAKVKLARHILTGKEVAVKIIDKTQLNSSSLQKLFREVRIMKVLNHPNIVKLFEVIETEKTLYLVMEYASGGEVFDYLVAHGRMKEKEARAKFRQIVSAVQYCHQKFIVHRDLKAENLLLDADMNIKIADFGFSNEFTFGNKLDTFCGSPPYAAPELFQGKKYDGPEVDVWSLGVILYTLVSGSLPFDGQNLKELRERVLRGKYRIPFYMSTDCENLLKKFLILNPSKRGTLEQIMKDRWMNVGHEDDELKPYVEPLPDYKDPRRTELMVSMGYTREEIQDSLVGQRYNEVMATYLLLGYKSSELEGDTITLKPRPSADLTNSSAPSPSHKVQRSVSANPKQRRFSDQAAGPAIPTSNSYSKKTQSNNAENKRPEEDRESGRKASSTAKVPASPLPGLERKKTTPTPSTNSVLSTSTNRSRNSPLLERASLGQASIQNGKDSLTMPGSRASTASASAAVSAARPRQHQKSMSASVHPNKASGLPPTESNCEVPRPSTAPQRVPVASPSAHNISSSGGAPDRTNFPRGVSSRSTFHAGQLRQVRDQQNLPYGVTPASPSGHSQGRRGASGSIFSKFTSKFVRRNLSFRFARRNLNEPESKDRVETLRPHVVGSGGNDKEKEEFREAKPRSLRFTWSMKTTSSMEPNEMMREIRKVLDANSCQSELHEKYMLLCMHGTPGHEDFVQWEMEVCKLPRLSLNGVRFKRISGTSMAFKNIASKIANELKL
MAPKAPK2, sequence (P49137 whole entry): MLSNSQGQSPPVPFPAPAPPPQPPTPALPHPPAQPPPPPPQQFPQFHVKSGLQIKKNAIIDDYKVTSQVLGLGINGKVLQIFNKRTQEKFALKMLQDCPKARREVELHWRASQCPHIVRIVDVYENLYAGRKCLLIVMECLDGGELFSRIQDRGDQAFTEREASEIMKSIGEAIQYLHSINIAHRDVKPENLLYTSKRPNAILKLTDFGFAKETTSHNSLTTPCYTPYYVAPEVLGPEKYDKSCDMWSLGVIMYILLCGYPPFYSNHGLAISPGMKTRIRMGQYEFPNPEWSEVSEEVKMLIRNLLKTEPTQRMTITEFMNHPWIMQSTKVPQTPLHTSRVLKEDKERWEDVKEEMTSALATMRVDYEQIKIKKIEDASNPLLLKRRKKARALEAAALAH
EGFR (ErbB1), sequence (P00533 25-1210): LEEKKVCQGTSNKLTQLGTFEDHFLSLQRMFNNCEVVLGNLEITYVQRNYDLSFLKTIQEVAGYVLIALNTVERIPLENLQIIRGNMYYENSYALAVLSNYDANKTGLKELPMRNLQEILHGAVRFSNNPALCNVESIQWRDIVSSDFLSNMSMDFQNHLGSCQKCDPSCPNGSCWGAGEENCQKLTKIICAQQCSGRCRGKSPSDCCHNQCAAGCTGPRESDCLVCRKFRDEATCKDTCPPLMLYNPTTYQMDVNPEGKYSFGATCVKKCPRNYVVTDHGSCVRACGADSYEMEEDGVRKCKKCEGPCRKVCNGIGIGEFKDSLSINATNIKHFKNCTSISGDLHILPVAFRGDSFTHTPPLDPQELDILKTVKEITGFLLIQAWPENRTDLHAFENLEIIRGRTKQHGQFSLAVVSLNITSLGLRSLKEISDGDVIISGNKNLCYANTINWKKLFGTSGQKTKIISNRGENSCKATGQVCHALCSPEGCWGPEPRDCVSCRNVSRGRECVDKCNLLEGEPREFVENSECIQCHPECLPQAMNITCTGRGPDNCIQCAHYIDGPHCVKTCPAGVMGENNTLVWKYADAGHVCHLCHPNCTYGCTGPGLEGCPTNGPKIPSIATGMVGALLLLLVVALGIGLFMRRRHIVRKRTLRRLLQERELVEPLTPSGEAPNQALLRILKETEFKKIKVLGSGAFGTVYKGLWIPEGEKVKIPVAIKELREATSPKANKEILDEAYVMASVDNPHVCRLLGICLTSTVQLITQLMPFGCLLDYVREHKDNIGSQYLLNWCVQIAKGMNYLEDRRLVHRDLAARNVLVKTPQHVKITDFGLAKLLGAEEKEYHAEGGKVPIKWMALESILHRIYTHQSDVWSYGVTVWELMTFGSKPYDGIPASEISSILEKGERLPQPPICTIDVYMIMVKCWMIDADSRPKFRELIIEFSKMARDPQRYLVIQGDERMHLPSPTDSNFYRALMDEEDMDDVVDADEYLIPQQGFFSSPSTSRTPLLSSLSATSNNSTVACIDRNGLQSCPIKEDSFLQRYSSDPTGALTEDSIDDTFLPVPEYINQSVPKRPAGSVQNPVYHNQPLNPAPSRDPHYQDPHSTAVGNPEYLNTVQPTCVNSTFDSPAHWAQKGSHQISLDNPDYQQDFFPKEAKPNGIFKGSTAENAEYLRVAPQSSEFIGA
RPS6KA3 (RSK2), sequence (P51812 whole entry): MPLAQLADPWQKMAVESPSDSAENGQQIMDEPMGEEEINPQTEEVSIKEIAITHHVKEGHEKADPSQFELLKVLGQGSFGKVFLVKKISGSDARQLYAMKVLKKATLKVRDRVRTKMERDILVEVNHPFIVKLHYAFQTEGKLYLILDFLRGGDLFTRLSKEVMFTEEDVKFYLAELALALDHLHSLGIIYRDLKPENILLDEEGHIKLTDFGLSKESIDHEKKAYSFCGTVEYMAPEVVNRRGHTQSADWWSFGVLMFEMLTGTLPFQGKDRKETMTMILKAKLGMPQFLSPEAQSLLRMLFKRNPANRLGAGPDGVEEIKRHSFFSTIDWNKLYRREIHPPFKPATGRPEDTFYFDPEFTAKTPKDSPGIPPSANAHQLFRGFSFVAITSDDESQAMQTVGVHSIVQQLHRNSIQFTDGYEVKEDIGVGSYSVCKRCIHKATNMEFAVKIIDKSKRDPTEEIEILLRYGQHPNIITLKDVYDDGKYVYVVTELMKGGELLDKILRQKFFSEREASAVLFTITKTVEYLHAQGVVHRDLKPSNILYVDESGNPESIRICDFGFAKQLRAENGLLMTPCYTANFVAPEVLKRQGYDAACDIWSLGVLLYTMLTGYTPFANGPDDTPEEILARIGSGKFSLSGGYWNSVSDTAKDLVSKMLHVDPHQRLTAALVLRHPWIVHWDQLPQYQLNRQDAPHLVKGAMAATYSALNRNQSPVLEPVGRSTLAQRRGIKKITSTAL
MAPK1 (ERK2), sequence (P28482 whole entry): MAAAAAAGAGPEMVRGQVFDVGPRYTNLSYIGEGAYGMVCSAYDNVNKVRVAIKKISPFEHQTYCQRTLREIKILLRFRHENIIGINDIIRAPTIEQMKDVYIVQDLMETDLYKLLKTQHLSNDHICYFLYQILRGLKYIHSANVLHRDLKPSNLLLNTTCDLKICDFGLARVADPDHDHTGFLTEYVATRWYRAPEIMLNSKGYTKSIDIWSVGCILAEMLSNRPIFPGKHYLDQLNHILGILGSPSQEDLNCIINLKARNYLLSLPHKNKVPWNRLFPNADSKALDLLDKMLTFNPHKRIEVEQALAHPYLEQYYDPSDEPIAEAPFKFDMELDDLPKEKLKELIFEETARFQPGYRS

## C=CCn1c(=O)c2cnc(Nc3ccc(N4CCN(C)CC4)cc3)nc2n1-c1cccc(C(C)(C)O)n1 [reference compound]
ABL1
  inhibition of ABL1: + (inhibition over 50% (tested at 300-350 nM))
ACVR1B (ALK4)
  inhibition of ACVR1B (ALK4): − (inhibition under 50% (tested at 300-350 nM))
AKT1 (PKB alpha)
  inhibition of AKT1 (PKB alpha): − (inhibition under 50% (tested at 300-350 nM))
AMPK A1/B1/G1
  inhibition of AMPK A1/B1/G1: − (inhibition under 50% (tested at 300-350 nM))
AURKA (Aurora A)
  inhibition of AURKA (Aurora A): − (inhibition under 50% (tested at 300-350 nM))
BTK
  inhibition of BTK: − (inhibition under 50% (tested at 300-350 nM))
CDK1/cyclin B
  inhibition of CDK1/cyclin B: − (inhibition under 50% (tested at 300-350 nM))
CHEK1 (CHK1)
  inhibition of CHEK1 (CHK1): − (inhibition under 50% (tested at 300-350 nM))
CSNK1G2 (CK1 gamma 2)
  inhibition of CSNK1G2 (CK1 gamma 2): − (inhibition under 50% (tested at 300-350 nM))
CSNK2A1 (CK2 alpha 1)
  inhibition of CSNK2A1 (CK2 alpha 1): − (inhibition under 50% (tested at 300-350 nM))
DYRK3
  inhibition of DYRK3: − (inhibition under 50% (tested at 300-350 nM))
EGFR (ErbB1)
  inhibition of EGFR (ErbB1): + (inhibition over 50% (tested at 300-350 nM))
EPHA2
  inhibition of EPHA2: − (inhibition under 50% (tested at 300-350 nM))
ERBB2 (HER2)
  inhibition of ERBB2 (HER2): − (inhibition under 50% (tested at 300-350 nM))
FGFR1
  inhibition of FGFR1: − (inhibition under 50% (tested at 300-350 nM))
FLT3
  inhibition of FLT3: − (inhibition under 50% (tested at 300-350 nM))
FRAP1 (mTOR)
  inhibition of FRAP1 (mTOR): − (inhibition under 50% (tested at 300-350 nM))
GSK3B (GSK3 beta)
  inhibition of GSK3B (GSK3 beta): − (inhibition under 50% (tested at 300-350 nM))
IGF1R
  inhibition of IGF1R: − (inhibition under 50% (tested at 300-350 nM))
IKBKB (IKK beta)
  inhibition of IKBKB (IKK beta): − (inhibition under 50% (tested at 300-350 nM))
INSR
  inhibition of INSR: − (inhibition under 50% (tested at 300-350 nM))
IRAK4
  inhibition of IRAK4: − (inhibition under 50% (tested at 300-350 nM))
JAK3
  inhibition of JAK3: − (inhibition under 50% (tested at 300-350 nM))
KDR (VEGFR2)
  inhibition of KDR (VEGFR2): − (inhibition under 50% (tested at 300-350 nM))
KIT
  inhibition of KIT: − (inhibition under 50% (tested at 300-350 nM))
MAP2K1 (MEK1)
  inhibition of MAP2K1 (MEK1): − (inhibition under 50% (tested at 300-350 nM))
MAP4K4 (HGK)
  inhibition of MAP4K4 (HGK): + (inhibition over 50% (tested at 300-350 nM))
MAPK1 (ERK2)
  inhibition of MAPK1 (ERK2): − (inhibition under 50% (tested at 300-350 nM))
MAPK14 (p38 alpha)
  inhibition of MAPK14 (p38 alpha): − (inhibition under 50% (tested at 300-350 nM))
MAPK8 (JNK1)
  inhibition of MAPK8 (JNK1): − (inhibition under 50% (tested at 300-350 nM))
MAPKAPK2
  inhibition of MAPKAPK2: − (inhibition under 50% (tested at 300-350 nM))
MARK2
  inhibition of MARK2: − (inhibition under 50% (tested at 300-350 nM))
MET (cMet)
  inhibition of MET (cMet): − (inhibition under 50% (tested at 300-350 nM))
NEK1
  inhibition of NEK1: − (inhibition under 50% (tested at 300-350 nM))
NTRK1 (TRKA)
  inhibition of NTRK1 (TRKA): − (inhibition under 50% (tested at 300-350 nM))
PAK4
  inhibition of PAK4: − (inhibition under 50% (tested at 300-350 nM))
PDGFRB (PDGFR beta)
  inhibition of PDGFRB (PDGFR beta): − (inhibition under 50% (tested at 300-350 nM))
PHKG2
  inhibition of PHKG2: − (inhibition under 50% (tested at 300-350 nM))
PIM1
  inhibition of PIM1: − (inhibition under 50% (tested at 300-350 nM))
PLK1
  inhibition of PLK1: − (inhibition under 50% (tested at 300-350 nM))
PRKACA (PKA)
  inhibition of PRKACA (PKA): − (inhibition under 50% (tested at 300-350 nM))
PRKCB1 (PKC beta I)
  inhibition of PRKCB1 (PKC beta I): − (inhibition under 50% (tested at 300-350 nM))
ROCK1
  inhibition of ROCK1: − (inhibition under 50% (tested at 300-350 nM))
RPS6KA3 (RSK2)
  inhibition of RPS6KA3 (RSK2): − (inhibition under 50% (tested at 300-350 nM))
RPS6KB1 (p70S6K)
  inhibition of RPS6KB1 (p70S6K): − (inhibition under 50% (tested at 300-350 nM))
SRC
  inhibition of SRC: + (inhibition over 50% (tested at 300-350 nM))
SYK
  inhibition of SYK: + (inhibition over 50% (tested at 300-350 nM))
TEK (Tie2)
  inhibition of TEK (Tie2): − (inhibition under 50% (tested at 300-350 nM))
